Source: patent EP4603105A1, “PHARMACEUTICAL COMPOSITION CONTAINING CYCLIC COMPOUND HAVING SELECTIVE KRAS INHIBITORY EFFECT AGAINST HRAS AND NRAS” (CHUGAI SEIYAKU KABUSHIKI KAISHA, priority 2022, dated 2024)
Where a SMILES comes first, the peptide text is derived from it. Bridges are numbered along the chain shown (N, C = ends). [ ]: non-standard residue; d: D form. The star is where a group is joined. hPhe(3-Cl-4-CF3) = N[C@@H](CCc1ccc(C(F)(F)F)c(Cl)c1)C(=O)O; NPrPhe(4-CF3) = CCCN[C@@H](Cc1ccc(C(F)(F)F)cc1)C(=O)O; NMeGly(cPent) = CN[C@H](C(=O)O)C1CCCC1; Aze(3S-Me) = C[C@H]1CN[C@@H]1C(=O)O; NMeD = CN[C@@H](CC(=O)O)C(=O)O; NMeL = CN[C@@H](CC(C)C)C(=O)O; Morpholide = C1CN(*)CCO1; Ac5c = NC1(C(=O)O)CCCC1; Aze = O=C(O)[C@@H]1CCN1; Ac4c = NC1(C(=O)O)CCC1; Sar = CNCC(=O)O

Tests used:
[1] = test system: human lung cancer strain NCI-H441; type: cell-based
In short: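 Readout: […] after the ATP-based reagent. Compound: serial dilutions in dimethyl sulfoxide.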

HRAS wild-type protein = HRAS wild-type protein (Homo sapiens, UniProt P01112); assay: Binding to HRAS by surface plasmon resonance (SPR), KD and KD ratio to KRAS
In short: (§1)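 GDP-bound biotin-Avi RAS captured at ~100–300 RU, 30°C, pH 7.4 HBS containing 10 µM GDP, 10 mM MgCl2, 1 mM DTT, 0.01% Tween 20 and 4% DMSO. KD by 1:1 fitting.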

[2] = target: GDP-bound KRAS wild-type protein (Homo sapiens, UniProt P01116); assay: Binding to KRAS by surface plasmon resonance (SPR), dissociation constant KD
In short: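 Measured at 30°C: SPR with GDP-loaded, E. coli-expressed biotin-Avi RAS captured (~100–300 RU), ascending 75 s compound injections, HBS pH 7.4 with GDP, MgCl2, 4% DMSO. KD from 1:1 fit.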

[3] = target: GDP-bound NRAS wild-type protein (Homo sapiens, UniProt P01111); assay: Binding to NRAS by surface plasmon resonance (SPR), KD and KD ratio to KRAS
In short: as §1

[4] = ratio of KD for HRAS wild-type protein to KD for KRAS
[5] = ratio of KD for GDP-bound NRAS wild-type protein to KD for KRAS
[6] = ratio of the KD value with respect to HRAS wild-type protein to the KD value with respect to KRAS
[7] = Single Cycle Kinetics, 1:1 binding model
[8] = ratio of the KD value with respect to GDP-bound NRAS wild-type protein to the KD value with respect to KRAS

Chain of GDP-bound KRAS wild-type protein (P01116 1-188 isoform P01116-2): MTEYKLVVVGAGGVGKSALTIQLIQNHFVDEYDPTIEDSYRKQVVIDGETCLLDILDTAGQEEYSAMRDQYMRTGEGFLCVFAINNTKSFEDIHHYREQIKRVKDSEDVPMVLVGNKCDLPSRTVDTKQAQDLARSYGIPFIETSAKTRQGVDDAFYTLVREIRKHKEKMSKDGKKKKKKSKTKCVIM
Chain of GDP-bound NRAS wild-type protein (P01111 whole entry): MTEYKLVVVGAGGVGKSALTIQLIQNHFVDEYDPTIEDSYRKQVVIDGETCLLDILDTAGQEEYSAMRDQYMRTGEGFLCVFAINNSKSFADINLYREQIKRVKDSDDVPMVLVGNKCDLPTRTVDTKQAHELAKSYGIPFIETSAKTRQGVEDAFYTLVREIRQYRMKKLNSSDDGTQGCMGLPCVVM
Chain of HRAS wild-type protein (P01112 whole entry): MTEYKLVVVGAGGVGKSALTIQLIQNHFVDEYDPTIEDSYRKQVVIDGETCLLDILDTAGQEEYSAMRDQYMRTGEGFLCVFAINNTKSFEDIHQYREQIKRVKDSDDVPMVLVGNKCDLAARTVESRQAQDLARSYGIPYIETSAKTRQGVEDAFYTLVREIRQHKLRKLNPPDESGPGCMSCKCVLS

Compound | IC50 [1] | HRAS /KRAS (HRAS wild-type protein; [4]) | Kd ([2]; Single Cycle Kinetics) | NRAS /KRAS [3, 5] | HRAS /KRAS (HRAS wild-type protein; [6]) | Kd [2, 7] | NRAS /KRAS [3, 8] | Kd ([2]; 1:1 binding model)
CC[C@H](C)[C@@H]1NC(=O)[C@H](CC(C)C)N(C)C(=O)C[C@@H](C(=O)N2CCOCC2)N(C)C(=O)[C@H](C2CCCC2)N(C)C(=O)C2(CCC2)NC(=O)[C@]2(C)CCCN2C(=O)[C@H](CCc2cc(F)c(C(F)(F)F)c(F)c2)NC(=O)CN(C)C(=O)[C@H](Cc2ccc(C(F)(F)F)cc2)N2CCCCC[C@@H](C2=O)N(C)C(=O)CN(C)C1=O [PP0817] | 112 nM | B (a compound having 3 or more and less than 10 is denoted as B) | 0.36 nM | A (a compound having 10 or more and less than 20 is denoted as A) | – | – | – | –
CCCN1C(=O)CN(C)C(=O)[C@@H]2CCN2C(=O)[C@H]([C@@H](C)CC)NC(=O)[C@H](CC(C)C)N(C)C(=O)C[C@@H](C(=O)N2CCOCC2)N(C)C(=O)[C@H](C2CCCC2)N(C)C(=O)C2(CCC2)NC(=O)[C@@H]2CCCN2C(=O)[C@H](CCc2ccc(C(F)(F)F)c(Cl)c2)NC(=O)CN(C)C(=O)[C@@H]1Cc1ccc(C(F)(F)F)cc1 [PP0402] ([NMeL]I[Aze][Sar][NPrPhe(4-CF3)][Sar][hPhe(3-Cl-4-CF3)]P[Ac4c][NMeGly(cPent)][NMeD]-Morpholide; lactam N-11) | 58.1 nM | – | – | – | C (A compound having a KD ratio of 0.1 or more and less than 3 is denoted as C) | 1.2 nM | B (a compound having 3 or more and less than 10 is denoted as B) | –
CCO[C@@H]1C[C@H]2C(=O)NC3(CCC3)C(=O)N(C)[C@@H](C3CCCC3)C(=O)N(C)[C@H](C(=O)N(C)C)CC(=O)N(C)[C@@H](CC)C(=O)N[C@@H]([C@@H](C)CC)C(=O)N3CCC[C@H]3C(=O)N(C)[C@H]3C/C=C\CCN(C3=O)[C@@H](Cc3ccc(C(F)(F)F)cc3)C(=O)N(C)CC(=O)N[C@@H](CCc3cc(F)c(C(F)(F)F)c(F)c3)C(=O)N2C1 [PP1056] | 75 nM | A (a compound having 10 or more and less than 20 is denoted as A) | 0.21 nM | A (a compound having 10 or more and less than 20 is denoted as A) | – | – | – | –
CCO[C@@H]1C[C@H]2C(=O)NC3(CCC3)C(=O)N(C)[C@@H](C3CCCC3)C(=O)N(C)[C@H](C(=O)N3CCOCC3)CC(=O)N(C)[C@@H](CC(C)C)C(=O)N[C@@H]([C@@H](C)CC)C(=O)N(C)CC(=O)N(C)[C@H]3CCCCCN(C3=O)[C@@H](Cc3nccs3)C(=O)N(C)CC(=O)N[C@@H](CCc3cc(F)c(C(F)(F)F)c(F)c3)C(=O)N2C1 [PP0923] | 445 nM | B (a compound having 3 or more and less than 10 is denoted as B) | 1.6 nM | B (a compound having 3 or more and less than 10 is denoted as B) | – | – | – | –
CCO[C@@H]1C[C@H]2C(=O)NC3(CC(C)(C)C3)C(=O)N(C)[C@@H](C3CCCC3)C(=O)N(C)[C@H](C(=O)N(C)C)CC(=O)N(C)[C@@H]([C@@H](C)OC)C(=O)N[C@@H]([C@@H](C)CC)C(=O)N3CCC[C@H]3C(=O)N(C)[C@H]3C/C=C\CCN(C3=O)[C@@H](Cc3ccc(C(F)(F)F)cc3)C(=O)N(C)CC(=O)N[C@@H](CCc3ccc(C(F)(F)F)c(OC)c3)C(=O)N2C1 [PP3204] | 29.2 nM | A (a compound having 10 or more and less than 20 is denoted as A) | – | A (a compound having 10 or more and less than 20 is denoted as A) | – | – | – | 0.4 nM
CCCN1C(=O)CN(C)C(=O)[C@@H]2[C@@H](C)CN2C(=O)[C@H]([C@@H](C)CC)NC(=O)[C@H](CC(C)C)N(C)C(=O)C[C@@H](C(=O)N2CCOCC2)N(C)C(=O)[C@H](C2CCCC2)N(C)C(=O)C2(CCCC2)NC(=O)[C@@H]2CCCN2C(=O)[C@H](CCc2ccc(C(F)(F)F)c(Cl)c2)NC(=O)CN(C)C(=O)[C@@H]1Cc1ccc(C(F)(F)F)cc1 [PP0258] ([NMeL]I[Aze(3S-Me)][Sar][NPrPhe(4-CF3)][Sar][hPhe(3-Cl-4-CF3)]P[Ac5c][NMeGly(cPent)][NMeD]-Morpholide; lactam N-11) | 11.3 nM | C (A compound having a KD ratio of 0.1 or more and less than 3 is denoted as C) | – | B (a compound having 3 or more and less than 10 is denoted as B) | – | – | – | 0.52 nM
C#CC[C@H]1C(=O)N[C@@H]([C@@H](C)CC)C(=O)N(C)CC(=O)N(C)[C@H]2C/C=C\CCN(C2=O)[C@@H](Cc2ccc(C(F)(F)F)cc2)C(=O)N(C)CC(=O)N[C@@H](CCc2ccc(C(F)(F)F)c(OC)c2)C(=O)N2C[C@H](OCC)C[C@H]2C(=O)NC2(CCCC2)C(=O)N(C)[C@@H](C2CCC2)C(=O)N(C)[C@H](C(=O)N2CCCCC2)CC(=O)N1C [PP3131] | 157 nM | A (a compound having 10 or more and less than 20 is denoted as A) | – | A (a compound having 10 or more and less than 20 is denoted as A) | – | – | – | 2.8 nM
CCO[C@@H]1C[C@H]2C(=O)NC3(CC(C)(C)C3)C(=O)N(C)[C@@H](C3CCCC3)C(=O)N(C)[C@H](C(=O)N(C)C)CC(=O)N(C)[C@@H]([C@H](C)OC)C(=O)N[C@@H]([C@@H](C)CC)C(=O)N3CCC[C@H]3C(=O)N(C)[C@H]3C/C=C\CCN(C3=O)[C@@H](Cc3ccc(C)cc3)C(=O)N(C)CC(=O)N[C@@H](CCc3ccc(C(F)(F)F)c(OC)c3)C(=O)N2C1 [PP3197] | 130 nM | A (a compound having 10 or more and less than 20 is denoted as A) | – | A (a compound having 10 or more and less than 20 is denoted as A) | – | – | – | 1.4 nM
CC[C@H](C)[C@@H]1NC(=O)[C@H](CC(C)C)N(C)C(=O)C[C@@H](C(=O)N2CCOCC2)N(C)C(=O)[C@H](C2CCC2)N(C)C(=O)C2(CCCC2)NC(=O)[C@@H]2CCCN2C(=O)[C@H](CCc2cc(F)c(C(F)(F)F)c(F)c2)NC(=O)CN(C)C(=O)[C@H](Cc2ccc(C(F)(F)F)cc2)N2CCCCC[C@@H](C2=O)N(C)C(=O)CN(C)C1=O [PP0504] | 235 nM | – | – | – | B (a compound having 3 or more and less than 10 is denoted as B) | 14 nM | B (a compound having 3 or more and less than 10 is denoted as B) | –
CCO[C@@H]1C[C@H]2C(=O)NC(C)(C)C(=O)N(C)[C@@H](C3CCCC3)C(=O)N(C)[C@H](C(=O)N(C)CC)CC(=O)N(C)[C@@H](CC(C)C)C(=O)N[C@@H]([C@@H](C)CC)C(=O)N(C)CC(=O)N(C)[C@H]3C/C=C\CCN(C3=O)[C@@H](Cc3ccc(C(F)(F)F)cc3)C(=O)N(C)CC(=O)N[C@@H](CCc3cc(F)c(C(F)(F)F)c(F)c3)C(=O)N2C1 [PP1937] | 6.8 nM | – | – | – | A (a compound having 10 or more and less than 20 is denoted as A) | 0.31 nM | A (a compound having 10 or more and less than 20 is denoted as A) | –
CCO[C@@H]1C[C@H]2C(=O)NC3(CC(C)(C)C3)C(=O)N(C)[C@@H](C3CCCC3)C(=O)N(C)[C@H](C(=O)N(C)CC)CC(=O)N(C)[C@@H](CC(C)C)C(=O)N[C@@H]([C@@H](C)CC)C(=O)N(C)CC(=O)N(C)[C@H]3C/C=C\CCN(C3=O)[C@@H](Cc3ccc(C(F)F)cc3)C(=O)N(C)CC(=O)N[C@@H](CCc3ccc(C4CC4)c(OC)c3)C(=O)N2C1 [PP3153] | 28.7 nM | A (a compound having 10 or more and less than 20 is denoted as A) | – | A (a compound having 10 or more and less than 20 is denoted as A) | – | – | – | 1.4 nM
